In one assay the target is TLR7 (Homo sapiens (Human), UniProt Q9NYK1). In words: TLR7 human peripheral blood mononuclear cell (PBMC) cell-based assay (GS-986 as agonist; IL-6 and IFNα readout). As to conditions: human PBMCs, TLR7 agonist GS-986 at 400 nM, 6 hours, antagonist potency; read-out: TLR-7 EC50. The procedure, abridged: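 IL-6 and IFNα released into supernatant were quantified by electrochemiluminescence immunoassay. Before that, human PBMCs at 100,000 per well received a 10-point antagonist titration for 1 h, then TLR7 agonist for 6 more hours, all at 37 °C, 5% CO2.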
TLR7, sequence (Q9NYK1 27-1049): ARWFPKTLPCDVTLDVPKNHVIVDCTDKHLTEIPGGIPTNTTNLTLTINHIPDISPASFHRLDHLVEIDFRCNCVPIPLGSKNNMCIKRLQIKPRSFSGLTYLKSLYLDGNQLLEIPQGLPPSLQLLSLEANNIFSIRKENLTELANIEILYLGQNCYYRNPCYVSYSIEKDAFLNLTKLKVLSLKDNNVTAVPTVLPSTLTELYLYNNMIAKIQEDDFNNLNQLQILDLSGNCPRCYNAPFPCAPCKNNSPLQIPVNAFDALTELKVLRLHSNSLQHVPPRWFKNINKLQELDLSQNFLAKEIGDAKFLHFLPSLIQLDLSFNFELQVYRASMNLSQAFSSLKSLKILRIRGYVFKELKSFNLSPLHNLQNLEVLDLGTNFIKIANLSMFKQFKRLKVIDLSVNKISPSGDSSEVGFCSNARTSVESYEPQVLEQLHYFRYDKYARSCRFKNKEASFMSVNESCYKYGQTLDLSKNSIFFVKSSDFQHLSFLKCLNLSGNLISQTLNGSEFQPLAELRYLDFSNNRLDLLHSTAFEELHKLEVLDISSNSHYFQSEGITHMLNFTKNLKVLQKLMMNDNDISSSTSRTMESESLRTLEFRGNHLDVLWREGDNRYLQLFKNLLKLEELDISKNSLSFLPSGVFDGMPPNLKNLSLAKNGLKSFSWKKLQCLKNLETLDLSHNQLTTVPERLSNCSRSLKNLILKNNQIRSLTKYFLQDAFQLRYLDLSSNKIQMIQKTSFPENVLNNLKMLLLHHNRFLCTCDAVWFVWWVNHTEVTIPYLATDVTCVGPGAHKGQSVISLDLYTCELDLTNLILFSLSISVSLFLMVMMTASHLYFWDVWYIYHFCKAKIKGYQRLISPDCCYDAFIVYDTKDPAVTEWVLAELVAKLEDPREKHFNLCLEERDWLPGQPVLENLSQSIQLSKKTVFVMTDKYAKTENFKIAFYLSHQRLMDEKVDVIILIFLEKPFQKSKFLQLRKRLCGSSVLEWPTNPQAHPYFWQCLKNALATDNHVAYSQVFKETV

The target in the next assay is TLR8 (Homo sapiens (Human), UniProt Q9NR97). In words: TLR8 human peripheral blood mononuclear cell (PBMC) cell-based assay (Compound A as agonist; TNFα and IL12p40 readout). As to conditions: human PBMCs, TLR8 agonist Compound A at 800 nM, 6 hours, antagonist potency; read-out: TLR-8 EC50.
TLR8, sequence (Q9NR97 27-1041): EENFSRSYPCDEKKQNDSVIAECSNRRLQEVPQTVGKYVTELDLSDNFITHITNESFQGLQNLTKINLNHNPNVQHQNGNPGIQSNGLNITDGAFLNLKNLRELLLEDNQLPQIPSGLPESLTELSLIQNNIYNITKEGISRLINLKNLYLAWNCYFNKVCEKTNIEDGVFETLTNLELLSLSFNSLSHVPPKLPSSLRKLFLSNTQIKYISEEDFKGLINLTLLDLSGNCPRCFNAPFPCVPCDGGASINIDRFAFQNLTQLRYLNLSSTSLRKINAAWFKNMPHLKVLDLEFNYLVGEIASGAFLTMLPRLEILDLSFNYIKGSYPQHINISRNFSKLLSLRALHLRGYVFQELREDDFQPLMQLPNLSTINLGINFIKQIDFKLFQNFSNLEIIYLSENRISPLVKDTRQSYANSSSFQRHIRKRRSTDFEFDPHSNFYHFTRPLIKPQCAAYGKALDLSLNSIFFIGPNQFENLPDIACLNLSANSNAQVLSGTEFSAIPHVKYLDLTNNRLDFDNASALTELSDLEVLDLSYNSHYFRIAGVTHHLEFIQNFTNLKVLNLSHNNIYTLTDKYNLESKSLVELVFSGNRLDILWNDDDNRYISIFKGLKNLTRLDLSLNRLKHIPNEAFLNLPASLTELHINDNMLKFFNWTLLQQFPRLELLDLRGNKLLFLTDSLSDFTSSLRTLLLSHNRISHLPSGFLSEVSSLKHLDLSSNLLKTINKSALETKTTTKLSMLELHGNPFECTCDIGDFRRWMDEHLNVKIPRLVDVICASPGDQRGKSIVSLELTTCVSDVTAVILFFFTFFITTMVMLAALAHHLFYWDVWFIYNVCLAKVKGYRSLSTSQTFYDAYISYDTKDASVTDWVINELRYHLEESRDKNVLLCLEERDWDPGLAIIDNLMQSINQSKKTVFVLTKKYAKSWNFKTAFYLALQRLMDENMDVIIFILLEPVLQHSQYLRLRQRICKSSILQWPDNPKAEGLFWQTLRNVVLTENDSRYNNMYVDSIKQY

A word on the EC50: it is the midpoint of the concentration-response curve. Consider `Cc1c(-c2[nH]c3sc([C@@H]4C[C@@H]5C[C@H]4CN5Cc4ccc(Br)cc4)c(C)c3c2C(C)C)cn2ncnc2c1C` [Example 154], for which the results for the EC50 on TLR7 and on TLR8 were 0.44 nM and 0.85 nM, respectively.
Take `Cc1c(-c2[nH]c3sc([C@@H]4C[C@@H]5C[C@H]4CN5CC(=O)N=S(C)(C)=O)c(C)c3c2C(C)C)cn2ncnc2c1C` [Example 155]: the EC50 on TLR7 is under 0.05 nM; at TLR8, 0.51 nM.
In the case of `Cc1c(C2CCN(S(=O)(=O)N3CCNCC3)CC2)sc2[nH]c(-c3cc(C)c4ncnn4c3)c(C(C)C)c12` [Example 156], the EC50 at TLR7 was under 0.05 nM; at TLR8, 9.8 nM.
In the same order, the values of `Cc1c(C2CCN(S(=O)(=O)N3CCN(C)CC3)CC2)sc2[nH]c(-c3cc(C)c4ncnn4c3)c(C(C)C)c12` [Example 157] are 0.17 nM and 29.6 nM.
For `Cc1c(C2CCN(C(=O)[C@H]3COC(C)(C)CN3)CC2)sc2[nH]c(-c3cc(C)c4ncnn4c3)c(C(C)C)c12` [Example 158], in that order: 0.15 nM and 61.8 nM.
In the same order, the values of `Cc1c(C2CCN(C(=O)[C@@H]3COC(C)(C)CN3)CC2)sc2[nH]c(-c3cc(C)c4ncnn4c3)c(C(C)C)c12` [Example 159] are 0.94 nM and 31.5 nM.
For the compound `COCc1c(C2CCN(CC(N)=O)CC2)sc2[nH]c(-c3cc(C)c4ncnn4c3)c(C(C)C)c12` [Example 160], the EC50 came out at 0.26 nM on TLR7 and 6.51 nM at TLR8.
Consider `Cc1c(C2CCCN(CC(N)=O)CC2)sc2[nH]c(-c3cc(C)c4ncnn4c3)c(C(C)C)c12` (stereo not drawn) [Example 161, 2-(4-(4-isopropyl-3-methyl-5-(8-methyl-[1,2,4]triazolo[1,5-a]pyridin-6-yl)-6H-thieno[2,3-b]pyrrol-2-yl)azepan-1-yl)acetamide], for which the EC50 at TLR7 was found to be 0.13 nM; at TLR8, 7.29 nM.
On to `Cc1cc(-c2[nH]c3sc(C4CCN(CC(N)=O)CC4)c(C(F)F)c3c2C(C)C)cn2ncnc12` [Example 162], for which the values for the EC50 on TLR7 and on TLR8 were 3.41 nM and 24.3 nM, respectively.
For `Cc1c(-c2[nH]c3sc([C@@H]4C[C@@H]5C[C@H]4CN5CC(=O)N(C)C)c(C)c3c2C(C)C)cn2ncnc2c1C` [Example 163], in that order: 0.3 nM and 0.38 nM.
With `Cc1c(-c2[nH]c3sc([C@@H]4C[C@@H]5C[C@H]4CN5CCCS(C)(=O)=O)c(C)c3c2C(C)C)cn2ncnc2c1C` [Example 164], the EC50 on TLR7 is 0.23 nM; at TLR8, under 0.05 nM.
In the same order, the values of `Cc1c(-c2[nH]c3sc([C@@H]4C[C@@H]5C[C@H]4CN5CC#N)c(C)c3c2C(C)C)cn2ncnc2c1C` [Example 165] are 0.13 nM and 0.41 nM.
For `Cc1c(-c2[nH]c3sc([C@@H]4C[C@@H]5C[C@H]4CN5CCC#N)c(C)c3c2C(C)C)cn2ncnc2c1C` [Example 166], in that order: 1.2 nM and 0.48 nM.
`Cc1c(-c2[nH]c3sc([C@@H]4C[C@@H]5C[C@H]4CN5C4COC4)c(C)c3c2C(C)C)cn2ncnc2c1C` [Example 167]: the half-maximal effective concentration (EC50) on TLR7 is 0.09 nM; on TLR8, 0.45 nM.
For `Cc1c(-c2[nH]c3sc([C@@H]4C[C@@H]5C[C@H]4CN5C4CCS(=O)(=O)CC4)c(C)c3c2C(C)C)cn2ncnc2c1C` [Example 168], in that order: 0.74 nM and 0.96 nM.
For `Cc1c(-c2[nH]c3sc([C@@H]4C[C@@H]5C[C@H]4CN5C4CC5(C4)CS(=O)(=O)C5)c(C)c3c2C(C)C)cn2ncnc2c1C` [Example 169], in that order: 0.29 nM and 0.07 nM.
Regarding `Cc1c(-c2[nH]c3sc([C@@H]4C[C@@H]5C[C@H]4CN5Cc4cccc(=O)[nH]4)c(C)c3c2C(C)C)cn2ncnc2c1C` [Example 170], the EC50 on TLR7 was under 0.05 nM; on TLR8 it was 0.26 nM.
In the same order, the values of `Cc1c(-c2[nH]c3sc([C@@H]4C[C@@H]5C[C@H]4CN5Cc4ccc[nH]c4=O)c(C)c3c2C(C)C)cn2ncnc2c1C` [Example 171] are under 0.05 nM and 0.06 nM.
For the compound `Cc1c(-c2[nH]c3sc([C@@H]4C[C@@H]5C[C@H]4CN5Cc4cccn(C(F)F)c4=O)c(C)c3c2C(C)C)cn2ncnc2c1C` [Example 172], the EC50 on TLR7 was determined as 3.03 nM; on TLR8, 0.82 nM.
On to `Cc1c(-c2[nH]c3sc([C@@H]4C[C@@H]5C[C@H]4CN5CC4(F)COC4)c(C)c3c2C(C)C)cn2ncnc2c1C` [Example 173], for which the EC50 on TLR7 turned out to be 0.15 nM; on TLR8 it was 1.06 nM.
In the same order, the values of `Cc1c(-c2[nH]c3sc([C@@H]4C[C@@H]5C[C@H]4CN5Cc4c[nH]nn4)c(C)c3c2C(C)C)cn2ncnc2c1C` [Example 174] are under 0.05 nM and 0.09 nM.
`Cc1c(-c2[nH]c3sc([C@@H]4C[C@@H]5C[C@H]4CN5Cc4nnc[nH]4)c(C)c3c2C(C)C)cn2ncnc2c1C` [Example 176]: the EC50 was found to be 0.08 nM at TLR7 and 0.12 nM at TLR8.
In the same order, the values of `Cc1c(-c2[nH]c3sc([C@@H]4C[C@@H]5C[C@H]4CN5Cc4cc[nH]c(=O)c4)c(C)c3c2C(C)C)cn2ncnc2c1C` [Example 177] are 0.5 nM and 0.07 nM.
In the same order, the values of `Cc1c(-c2[nH]c3sc([C@@H]4C[C@@H]5C[C@H]4CN5Cc4ccc(=O)[nH]c4)c(C)c3c2C(C)C)cn2ncnc2c1C` [Example 178] are 0.06 nM and 0.16 nM.
In the same order, the values of `Cc1c(-c2[nH]c3sc([C@@H]4C[C@@H]5C[C@H]4CN5CC(=O)OC(C)(C)C)c(C)c3c2C(C)C)cn2ncnc2c1C` [Example 179, tert-butyl 2-((1S,4R,5R)-5-(5-(7,8-dimethyl-[1,2,4]triazolo[1,5-a]pyridin-6-yl)-4-isopropyl-3-methyl-6H-thieno[2,3-b]pyrrol-2-yl)-2-azabicyclo[2.2.1]heptan-2-yl)acetate] are 1.71 nM and 3.53 nM.
`Cc1c(-c2[nH]c3sc([C@@H]4C[C@@H]5C[C@H]4CN5CCS(N)(=O)=O)c(C)c3c2C(C)C)cn2ncnc2c1C` [Example 180]: the EC50 at TLR7 is under 0.05 nM; on TLR8, 0.17 nM.
For `Cc1c(-c2[nH]c3sc([C@@H]4C[C@@H]5C[C@H]4CN5CCS(=O)(=O)N(C)C)c(C)c3c2C(C)C)cn2ncnc2c1C` [Example 181], in that order: 0.27 nM and 1.23 nM.
For `CNS(=O)(=O)CCN1C[C@@H]2C[C@H]1C[C@H]2c1sc2[nH]c(-c3cn4ncnc4c(C)c3C)c(C(C)C)c2c1C` [Example 182], in that order: 0.07 nM and 0.32 nM.
For `Cc1c(-c2[nH]c3sc([C@@H]4C[C@@H]5C[C@H]4CN5CC(=O)NC4CC4)c(C)c3c2C(C)C)cn2ncnc2c1C` [Example 184], in that order: 1.27 nM and 0.34 nM.
In the case of `Cc1c(-c2[nH]c3sc([C@@H]4C[C@@H]5C[C@H]4CN5CC(=O)NC(C)C)c(C)c3c2C(C)C)cn2ncnc2c1C` [Example 185], the values for the EC50 at TLR7 and at TLR8 were 1.89 nM and 0.57 nM, respectively.
Consider `CCNC(=O)CN1C[C@@H]2C[C@H]1C[C@H]2c1sc2[nH]c(-c3cn4ncnc4c(C)c3C)c(C(C)C)c2c1C` [Example 186], for which the EC50 at TLR7 was 0.66 nM; at TLR8, 0.45 nM.
As to `Cc1c(-c2[nH]c3sc(C4CC5(CC(N)C5)C4)c(C)c3c2C(C)C)cn2ncnc2c1C` (stereo not drawn) [Example 187], the EC50 is 0.2 nM on TLR7 and 1.09 nM at TLR8.
In the same order, the values of `Cc1c(-c2[nH]c3sc(C4CC5(C4)CC(N(C4COC4)C4COC4)C5)c(C)c3c2C(C)C)cn2ncnc2c1C` (stereo not drawn) [Example 188] are 5.64 nM and 27.2 nM.
For `Cc1c(C2C[C@H]3CC[C@@H]2CN3)sc2[nH]c(-c3cc(C)c4ncnn4c3)c(C(C)C)c12` (stereo partly drawn) [Example 189], in that order: 2.23 nM and 30.9 nM.
In the same order, the values of `Cc1c(C2CC2C(=O)N2CCNCC2)sc2[nH]c(-c3cc(C)c4ncnn4c3)c(C(C)C)c12` (stereo not drawn) [Example 192] are 274 nM and over 1000 nM.
Consider `Cc1c(C23CNCC2C3)sc2[nH]c(-c3cc(C)c4ncnn4c3)c(C(C)C)c12` (stereo not drawn) [Example 193], for which the values for the EC50 at TLR7 and at TLR8 were 0.2 nM and 2.87 nM, respectively.
For `Cc1c(C23CNCCC2C3)sc2[nH]c(-c3cc(C)c4ncnn4c3)c(C(C)C)c12` (stereo not drawn) [Example 194], the EC50 on TLR7 came out at 0.2 nM; at TLR8, 9.52 nM.
For `Cc1c(C23CCNCC2C3)sc2[nH]c(-c3cc(C)c4ncnn4c3)c(C(C)C)c12` (stereo not drawn) [Example 195], in that order: 0.05 nM and 2.12 nM.
In the same order, the values of `Cc1c(C23CC2CCN(CC(N)=O)C3)sc2[nH]c(-c3cc(C)c4ncnn4c3)c(C(C)C)c12` (stereo not drawn) [Example 196] are 0.72 nM and 69.5 nM.
In the same order, the values of `Cc1c(C23CC2CN(CC(N)=O)C3)sc2[nH]c(-c3cc(C)c4ncnn4c3)c(C(C)C)c12` (stereo not drawn) [Example 197] are 1.74 nM and 29.8 nM.
With `Cc1c(C23CNCC2C3(F)F)sc2[nH]c(-c3cc(C)c4ncnn4c3)c(C(C)C)c12` (stereo not drawn) [Example 198], the EC50 was determined as 5.06 nM on TLR7 and 13.8 nM at TLR8.
In the same order, the values of `Cc1c(C23CCN(CC(N)=O)CC2C3)sc2[nH]c(-c3cc(C)c4ncnn4c3)c(C(C)C)c12` (stereo not drawn) [Example 199] are 0.47 nM and 14.8 nM.
As to `Cc1c(C23CN(CC(N)=O)CC2C3(F)F)sc2[nH]c(-c3cc(C)c4ncnn4c3)c(C(C)C)c12` (stereo not drawn) [Example 200], the EC50 on TLR7 was found to be 4.05 nM; at TLR8, 332 nM.
For `Cc1c(C2C3CNCC32)sc2[nH]c(-c3cc(C)c4ncnn4c3)c(C(C)C)c12` (stereo not drawn) [Example 201], the EC50 on TLR7 is under 0.05 nM; at TLR8 it was 0.36 nM.
In the same order, the values of `Cc1c(C2C3CN(CC(N)=O)CC32)sc2[nH]c(-c3cc(C)c4ncnn4c3)c(C(C)C)c12` (stereo not drawn) [Example 202] are 2.59 nM and 2.97 nM.

The values above are taken from US11661431B2, “Thienopyrrole compounds” (Gilead Sciences, Inc., priority 2021, dated 2023).
